{"source": "patent US5532227A", "about": "“Tetracyclines including non-antimicrobial chemically-modified tetracyclines inhibit excessive glycosylation of different types of collagen and other proteins during diabetes” (The Research Foundation of State University of New York, priority 1994, dated 1996)", "key": {"skin collagen [1]": {"tested_on": "skin collagen", "assay": "Glycosylation of diabetic rat skin collagen (Example V, Table IV)", "format": "in vivo, Sprague-Dawley rat", "details": "5 mg daily oral gavage, 21 days; for mM Fructosamine/mg protein (Mean ± SE): NDC 0.027, untreated diabetic 0.377; for Reduction of glycosylation in treated diabetics (%): vs untreated diabetic control", "description": "(§1) All animals were weighed weekly.\nThe subcutaneous muscle layer was removed leaving essentially the dermis. The dermis (skin connective tissue) samples were minced, then homogenized in phosphate buffered saline (4° C.). Following centrifugation (at 9000 rpm, 4° C., 30 min.) of the homogenates, the supernatants were discarded. The pellets were repeatedly washed, then resuspended and extracted at 4° C. overnight in chloroform/methanol to remove lipids. The de-lipidized tissue samples were then washed in 100% methanol, then in 50% methanol. Following the methanol washes, the samples were washed with HEPES buffer (pH 7.4). The skin connective tissue samples (100 mg of each sample) were incubated at 37° C. (24 hours) with chromatographically-purified bacterial collagenase. After 24 hours the reaction mixture was centrifuged at 7000 rpm, room temperature for 30 minutes. Following centrifugation, the supernatants containing the digested collagen were collected. Aliquots of the supernatants were analyzed for glycosylated collagen using a modification of the Isolab Glyco-PROBE™ GSP assay kit. The assay is designed to measure glucose bound to protein which was then converted by Amadori rearrangement to fructosamine. For purposes of the present invention, the sample total protein was increased to compensate for low levels of glycosylated collagen compared to glycosylated serum proteins."}, "collagen": {"tested_on": "collagen", "details": "diabetes in rats; Brownlee et al. 1986; cited from earlier work"}, "[2]": {"details": "Wong et al. 1984, cited from earlier work"}, "collagenase [3]": {"tested_on": "collagenase", "details": "in vitro (Golub, et al., 1991) and in vivo; cited from earlier work"}, "collagenase [4]": {"tested_on": "collagenase", "assay": "Collagenase activity in skin of diabetic rats (Example V, FIG. 8)", "format": "in vivo, Sprague-Dawley rat", "details": "5 mg daily oral gavage, 21 days; p<0.001 for normalization", "description": "as §1\nIn particular, all dissection and extraction procedures were carried out at 4° C. unless otherwise indicated. For MMP analysis, the tissues were minced, weighed, extracted, and the extracts partially purified by ammonium sulfate precipitation using techniques described previously (Ramamurthy and Golub, J. Periodontal Res. 17, 455, (1983)). The extracts of the diseased tissue were then concentrated 5-fold and aliquots were incubated (a) with [^3 H-methyl] gelatin (denatured type I rat skin collagen ) at 37° C. for 4hours to measure gelatinase activity. The undigested gelatin was precipitated with trichloroacetic acid, and after centrifugation, aliquots of the degradation products in the supernatants were measured in a liquid scintillation spectrometer (in addition to this lysis assay, the different molecular forms of gelatinase were assessed by zymography); (b) with [^3 H-methyl] collagen for 18 hours at 27° C. and the collagen degradation fragments in the supernatants were analyzed with a liquid scintillation spectrometer to measure collagenase activity. In addition, the radiolabeled collagen components (α chains) and degradation fragments (α^A) were assessed by a combination of SDS-polyacrylamide gel electrophoresis and fluorography as described previously (Golub et al. J. Periodontal Res. 20, 12 (1985)."}, "serum proteins [5]": {"tested_on": "serum proteins", "assay": "Glycosylated serum protein (GSP) in diabetic rats (Example V, FIG. 7)", "details": "5 mg daily oral gavage, 21 days; vs untreated diabetics, p<0.005", "quoted_text": "Fifty-two adult male Sprague-Dawley rats were divided into eight groups, each consisting of 5-7 animals. Diabetes was induced by I.V. administration of streptozotocin in all rats, except the non-diabetic control group (7 rats). […] All animals were weighed weekly. Following general anesthesia by halothane inhalation, blood samples were collected by cardiac puncture. Blood samples were analyzed for serum glucose and glycosylated serum protein (GSP) levels. As previously mentioned, glycosylated serum protein levels were measured using the Isolab Glyco-PROBE™ GSP (glycosylated serum protein) assay kit."}, "gelatinase": {"tested_on": "gelatinase", "assay": "Gelatinase activity in skin of diabetic rats (Example V, FIG. 9)", "format": "in vivo, Sprague-Dawley rat", "details": "5 mg daily oral gavage, 21 days; p<0.001 for normalization", "description": "as §1\nIn particular, all dissection and extraction procedures were carried out at 4° C. unless otherwise indicated. […] The extracts of the diseased tissue were then concentrated 5-fold and aliquots were incubated (a) with [^3 H-methyl] gelatin (denatured type I rat skin collagen ) at 37° C. for 4hours to measure gelatinase activity. The undigested gelatin was precipitated with trichloroacetic acid, and after centrifugation, aliquots of the degradation products in the supernatants were measured in a liquid scintillation spectrometer (in addition to this lysis assay, the different molecular forms of gelatinase were assessed by zymography); (b) with [^3 H-methyl] collagen for 18 hours at 27° C. and the collagen degradation fragments in the supernatants were analyzed with a liquid scintillation spectrometer to measure collagenase activity."}, "[6]": {"details": "White, Lancet 1989; cited from earlier work"}, "[7]": {"tested_on": "streptozotocin-diabetic rats", "assay": "Proteinuria: urine protein excretion in diabetic rats (Example III, FIG. 4)", "format": "in vivo, rat", "details": "4 weeks", "description": "Example III was carried out to determine the effect of tetracycline therapy on proteinuria, a parameter of renal damage, in diabetic rats.\n(§2) Streptozotocin-diabetic rats were treated by the daily oral administration of 20 mg minocycline/rat/day over a 4-week period. At the end of the protocol, 24-hour urines were collected to measure protein excretion."}, "[8]": {"tested_on": "streptozotocin-diabetic rats", "assay": "Other signs of diabetes (hyperglycemia, glucosuria, polyuria) in diabetic rats (Example III)", "format": "in vivo, rat", "description": "as §2"}, "diabetic rats": {"tested_on": "diabetic rats", "details": "Golub et al. 1990; cited from earlier work"}, "serum protein": {"tested_on": "serum protein", "assay": "Glycosylated serum proteins in diabetic rats (Example IV, FIG. 5)", "format": "in vivo, Sprague-Dawley rat", "details": "5 mg daily oral gavage, 21 days; effect p<0.05", "description": "(Control vs. Diabetic p<0.01, Diabetic vs. Diabetic treated with Doxycycline p<0.05, Diabetic vs. Diabetic treated with CMT-1 (4-dedimethyiaminotetracycline) p<0.05).\n(§3) Sixteen adult male sprague-Dawley rats, each weighing approximately 350 grams, were divided into four groups 0f four animals per group."}, "skin collagen [9]": {"tested_on": "skin collagen", "assay": "Glycosylation of skin collagen in diabetic rats, anthrone method (Example IV, FIG. 6)", "format": "in vivo, Sprague-Dawley rat", "details": "5 mg daily oral gavage, 21 days; effect p<0.05", "description": "as §3\nIn addition, the entire skin was dissected from each rat. Samples containing 100mg of each skin were suspended in a Tris-HCl buffer containing 5mM CaCl2 and chromatographically-purified bacterial collagenase and incubated at 37° C. for 4 hours. Following incubation all samples were centrifugated at 35,000×G and the supernatants containing the skin collagen fragments were collected. The skin digest supernatants were analyzed for (1) carbohydrate-attached-to-collagen by the anthrone method, as described by Halhoul and Kleinberg ([…]) Anal. Biochem. 50: 337-343 and (2) total protein using the BioRad Assay, BioRad Chemical Division, Richmond, Calif."}, "serum proteins [10]": {"tested_on": "serum proteins", "assay": "Serum fructosamine (glycosylated serum protein), 14 weeks doxycycline (Example II, Table III)", "format": "in vivo", "details": "2 mg/rat/day oral", "description": "Three groups of rats were established: a non-diabetic control group, an untreated streptozotocin-diabetic group and a streptozotocin-diabetic group treated orally with 2 mg doxycycline/rat/day over the 14-week time period. At the end of the 14 weeks, blood samples were collected from each rat arid the serum was measured for glycosylated protein using an assay which is based on the ability of glucose to non-enzymatically bind to proteins by a ketoamine crosslink to form fructosamine. During the assay, the glucose bound to the protein through a ketoamine chemical bond reduces a tetrazolium dye under alkaline conditions producing a color change which is measured spectrophotometrically. Armbruster, Clin. Chem., 33: 2153-2163 (1987). A fructosamine assay kit is available from Isolab Inc., Akron, Ohio 44321.\nIn particular, the serum samples were centrifuged to remove lipids. The clarified serum samples were treated with a reagent to remove ascorbic acid and other interfering substances. The treated Serum samples were then incubated for a fixed period of time, with the fructosamine-bicarbonate reagent (tetrazolium salt), and absorbance was measured at a wavelength of 500 nm in a spectrophotometer. The data was analyzed statistically."}}, "data": [{"compound": "CC1(O)c2cccc(O)c2C(O)=C2C(=O)C3C(O)=C(C(N)=O)C(=O)CC3CC21", "note": "(stereo not drawn) [CMT-7, 12a-deoxy-4-deoxy-4-dedimethylaminotetracycline]", "values": [{"measurement": "mM Fructosamine/mg protein (Mean ± SE)", "setting": "skin collagen [1]", "result": "0.141 ± 0.086 mM Fructosamine/mg protein"}, {"measurement": "Reduction of glycosylation in treated diabetics (%)", "setting": "skin collagen [1]", "result": 62.6, "unit": "%"}]}, {"compound": "N=C(N)NN", "note": "[aminoguanidine]", "values": [{"measurement": "inhibition of nonenzymatic glucose-derived collagen crosslinking", "setting": "collagen", "result": "effective inhibitor"}]}, {"compound": "CN(C)C1C(=O)C(C(N)=O)=C(O)C2(O)C(=O)C3=C(O)c4c(O)cccc4C(C)(O)C3CC12", "note": "(stereo not drawn) [tetracycline]", "values": [{"measurement": "effectiveness against acne vulgaris", "setting": "[2]; combination study with ibuprofen", "result": "effective agent against acne vulgaris"}]}, {"compound": "tetracycline pyrazole [CMT-5]", "values": [{"measurement": "anticollagenase properties", "setting": "collagenase [3]", "result": "lost its anticollagenase properties"}, {"measurement": "collagenase activity in the skin", "setting": "collagenase [4]", "result": "normalized by all treatment groups (p<0.001) with the exception of CMT 5"}, {"measurement": "GSP levels", "setting": "serum proteins [5]", "result": "substantially lower"}, {"measurement": "mM Fructosamine/mg protein (Mean ± SE)", "setting": "skin collagen [1]", "result": "0.121 ± 0.050 mM Fructosamine/mg protein"}, {"measurement": "Reduction of glycosylation in treated diabetics (%)", "setting": "skin collagen [1]", "result": 69.9, "unit": "%"}, {"measurement": "gelatinase activity in the skin", "setting": "gelatinase", "result": "normalized by all treatment groups (p<0.001) with the exception of CMT 5"}]}, {"compound": "CC1(O)c2c(Cl)ccc(O)c2C(=O)C2=C(O)C3(O)C(=O)C(C(N)=O)=C(O)CC3CC21", "note": "(stereo not drawn) [CMT-4, 7-chloro-4-dedimethylaminotetracycline]", "values": [{"measurement": "mM Fructosamine/mg protein (Mean ± SE)", "setting": "skin collagen [1]", "result": "0.236 ± 0.026 mM Fructosamine/mg protein"}, {"measurement": "Reduction of glycosylation in treated diabetics (%)", "setting": "skin collagen [1]", "result": 37.4, "unit": "%"}]}, {"compound": "CN(C)c1ccc(O)c2c1C[C@H]1C[C@H]3[C@H](N(C)C)C(O)=C(C(N)=O)C(=O)[C@@]3(O)C(O)=C1C2=O", "note": "[Minocycline]", "values": [{"measurement": "effectiveness in dystrophic epidermolysis bullosa", "setting": "[6]", "result": "effective in treating dystrophic epidermolysis bullosa"}, {"measurement": "urine protein excretion", "setting": "[7]; 20 mg minocycline/rat/day oral, normal 48, untreated diabetics 280", "result": 52, "unit": "mg/24 hr"}, {"measurement": "development of proteinuria", "setting": "[7]; 20 mg/rat/day oral", "result": "completely prevented the development of proteinuria"}, {"measurement": "other signs of diabetes including hyperglycemia, glucosuria and polyuria", "setting": "[8]", "result": "Neither treatment with minocycline nor CMT-1 reduced the other signs of diabetes"}]}, {"compound": "CC(C)Cc1ccc(C(C)C(=O)O)cc1", "note": "(stereo not drawn) [ibuprofen]", "values": [{"measurement": "reduction of resulting inflammation in acne vulgaris", "setting": "[2]; combination study with tetracycline", "result": "useful in reducing the resulting inflammation"}]}, {"compound": "NC(=O)C1=C(O)C2(O)C(=O)C3=C(O)c4c(O)cccc4CC3CC2CC1=O", "note": "(stereo not drawn) [CMT-3, 6-demethyl-6-deoxy-4-dedimethylaminotetracycline]", "values": [{"measurement": "mM Fructosamine/mg protein (Mean ± SE)", "setting": "skin collagen [1]", "result": "0.186 ± 0.048 mM Fructosamine/mg protein"}, {"measurement": "Reduction of glycosylation in treated diabetics (%)", "setting": "skin collagen [1]", "result": 50.7, "unit": "%"}]}, {"compound": "C[C@H]1c2cccc(O)c2C(O)=C2C(=O)[C@]3(O)C(O)=C(C(N)=O)C(=O)[C@@H](N(C)C)[C@@H]3[C@@H](O)[C@@H]21", "note": "[Doxycycline, reference compound]", "values": [{"measurement": "severity of hyperglycemia", "setting": "diabetic rats", "result": "does not reduce the severity of hyperglycemia in diabetic rats"}, {"measurement": "collagenase activity in the skin", "setting": "collagenase [4]", "result": "normalized"}, {"measurement": "fructosamine attached to serum protein (glycosylated serum protein)", "setting": "serum protein", "result": "returned both of these parameters of abnormal glycosylation to essentially normal levels"}, {"measurement": "glycosylation of skin collagen", "setting": "skin collagen [9]", "result": "returned both of these parameters of abnormal glycosylation to essentially normal levels"}, {"measurement": "mM Fructosamine/mg protein (Mean ± SE)", "setting": "skin collagen [1]", "result": "0.244 ± 0.050 mM Fructosamine/mg protein"}, {"measurement": "Reduction of glycosylation in treated diabetics (%)", "setting": "skin collagen [1]", "result": 35.3, "unit": "%"}, {"measurement": "Serum Fructosamine Concentration", "setting": "serum proteins [10]; mean ± standard error, non-diabetic 1.33, untreated diabetics 3.82", "result": "3.23 ± 0.20"}, {"measurement": "fructosamine levels in the serum proteins", "setting": "serum proteins [10]; vs untreated diabetics, p<0.05", "result": "significantly (p<0.05) reduced"}, {"measurement": "gelatinase activity in the skin", "setting": "gelatinase", "result": "normalized"}]}, {"compound": "C[C@H]1c2cccc(O)c2C(O)=C2C(=O)[C@]3(O)C(O)=C(C(N)=O)C(=O)C[C@@H]3[C@@H](O)[C@@H]21", "note": "[CMT-8, 6α-deoxy-5-hydroxy-4-dedimethylaminodoxycycline]", "values": [{"measurement": "mM Fructosamine/mg protein (Mean ± SE)", "setting": "skin collagen [1]", "result": "0.118 ± 0.090 mM Fructosamine/mg protein"}, {"measurement": "Reduction of glycosylation in treated diabetics (%)", "setting": "skin collagen [1]", "result": 68.7, "unit": "%"}]}]}
